Read-outs that look alike come from different tables or passages of the source.
Molecular target: T1, ΔF508-CFTR (Homo sapiens, UniProt P13569, DEL508-508)
T1 construct: host or cells: CFBE41o-, doxycycline-inducible
Experiment: CFTR cell surface levels using HRP-tagged ΔF508-CFTR expressing CFBE cells, in the presence of a co-corrector
Assay type: cell-based
Description: Measuring CFTR Cell Surface Levels Using HRP-Tagged ΔF508-CFTR Expressing CFBE Cells
The HRP-tagged ΔF508-CFTR cell assay measures the expression of CFTR-ΔF508 at the plasma membrane. CFTR-ΔF508 has a folding defect leading to absence of protein at the plasma membrane. This assay is used to evaluate the capacity of compounds to increase the expression of CFTR-ΔF508 at the plasma membrane. The CFTR-ΔF508 is tagged with HRP (horse radish peroxidase enzyme) within the ECL4 (Extracellular loop 4) of CFTR (Phuan, P.-W. et al. Synergy-based small-molecule screen using a human lung epithelial cell line yields ΔF508-CFTR correctors that augment VX-809 maximal efficacy. Mol. Pharmacol. 86, 42-51 (2014)). When HRP-tagged ΔF508-CFTR is present at the plasma membrane, the HRP enzyme activity can be measured. The amount of CFTR-ΔF508 that can be rescued to the plasma membrane is correlated with the amount of functional enzyme that can be measured.
There are several ways to measure the capacity of compounds to rescue CFTR-ΔF508 to the plasma membrane; either compounds are evaluated on their own and the impact on plasma membrane levels is measured or compounds are evaluated in combination with a co-corrector, i.e. a compound that rescues CFTR-ΔF508 to the plasma membrane but rescue can be enhanced by addition of compounds due to a complementary mode of action.
Activity of Compounds in Combination with Co-Corrector:
For this purpose doxycycline-inducible ΔF508-CFTR-HRP expressing CFBE4lo− cells (obtained from Gergely Lukacs, McGill University) were maintained in MEM (Minimum Essential Medium, Gibco; 31095) supplemented with 10% fetal bovine serum (Hyclone; SV30160.03) under puromycin (3 μg/mL) and G418 selection (0.2 mg/mL). For compound testing, cells were seeded at 4000 cells/well in white 384-well plates (Greiner; 781080) in 50 μL of medium containing 0.5 μg/mL doxycycline and incubated for 68 hours at 37° C., 5% CO2. On day four, 10 μL of test compounds diluted in PBS (phosphate buffered saline) were added to the plates at a final DMSO concentration of 0.1%. In order to measure compound synergy with a co-corrector, 3 μM co-corrector (3-[(2R,4R)-4-({[1-(2,2-difluoro-1,3-benzodioxol-5-yl)cyclopropyl]carbonyl}amino)-7-methoxy-3,4-dihydro-2H-chromen-2-yl]benzoic acid) was added along with test compounds. All compound plates contained negative controls (DMSO) and positive controls (3 μM co-corrector). Cell plates were incubated at 33° C., 5% CO2 for 20 hours. On day five, the cells were washed five times with phosphate-buffered saline, and HRP activity was assayed by the addition of 50 μL/well of HRP substrate (SuperSignal™ West Pico Chemiluminescent Substrate, Thermo Scientific; 34080). After incubation for 15 minutes in the dark, the chemiluminescence was measured using a plate reader (EnVision®, Perkin Elmer). Raw data were normalized to percentage activity values using the equation: 100×(Sample−Negative control)/(Positive control−Negative Control).

[1] = HRP-tagged ΔF508-CFTR CFBE cells, in the presence of 3 μM co-corrector
[2] = HRP-tagged ΔF508-CFTR CFBE cells, in the presence of 3 μM co-corrector, read-out: EC50

T1 sequence (P13569 with tags, fused parts or gaps DEL508-508): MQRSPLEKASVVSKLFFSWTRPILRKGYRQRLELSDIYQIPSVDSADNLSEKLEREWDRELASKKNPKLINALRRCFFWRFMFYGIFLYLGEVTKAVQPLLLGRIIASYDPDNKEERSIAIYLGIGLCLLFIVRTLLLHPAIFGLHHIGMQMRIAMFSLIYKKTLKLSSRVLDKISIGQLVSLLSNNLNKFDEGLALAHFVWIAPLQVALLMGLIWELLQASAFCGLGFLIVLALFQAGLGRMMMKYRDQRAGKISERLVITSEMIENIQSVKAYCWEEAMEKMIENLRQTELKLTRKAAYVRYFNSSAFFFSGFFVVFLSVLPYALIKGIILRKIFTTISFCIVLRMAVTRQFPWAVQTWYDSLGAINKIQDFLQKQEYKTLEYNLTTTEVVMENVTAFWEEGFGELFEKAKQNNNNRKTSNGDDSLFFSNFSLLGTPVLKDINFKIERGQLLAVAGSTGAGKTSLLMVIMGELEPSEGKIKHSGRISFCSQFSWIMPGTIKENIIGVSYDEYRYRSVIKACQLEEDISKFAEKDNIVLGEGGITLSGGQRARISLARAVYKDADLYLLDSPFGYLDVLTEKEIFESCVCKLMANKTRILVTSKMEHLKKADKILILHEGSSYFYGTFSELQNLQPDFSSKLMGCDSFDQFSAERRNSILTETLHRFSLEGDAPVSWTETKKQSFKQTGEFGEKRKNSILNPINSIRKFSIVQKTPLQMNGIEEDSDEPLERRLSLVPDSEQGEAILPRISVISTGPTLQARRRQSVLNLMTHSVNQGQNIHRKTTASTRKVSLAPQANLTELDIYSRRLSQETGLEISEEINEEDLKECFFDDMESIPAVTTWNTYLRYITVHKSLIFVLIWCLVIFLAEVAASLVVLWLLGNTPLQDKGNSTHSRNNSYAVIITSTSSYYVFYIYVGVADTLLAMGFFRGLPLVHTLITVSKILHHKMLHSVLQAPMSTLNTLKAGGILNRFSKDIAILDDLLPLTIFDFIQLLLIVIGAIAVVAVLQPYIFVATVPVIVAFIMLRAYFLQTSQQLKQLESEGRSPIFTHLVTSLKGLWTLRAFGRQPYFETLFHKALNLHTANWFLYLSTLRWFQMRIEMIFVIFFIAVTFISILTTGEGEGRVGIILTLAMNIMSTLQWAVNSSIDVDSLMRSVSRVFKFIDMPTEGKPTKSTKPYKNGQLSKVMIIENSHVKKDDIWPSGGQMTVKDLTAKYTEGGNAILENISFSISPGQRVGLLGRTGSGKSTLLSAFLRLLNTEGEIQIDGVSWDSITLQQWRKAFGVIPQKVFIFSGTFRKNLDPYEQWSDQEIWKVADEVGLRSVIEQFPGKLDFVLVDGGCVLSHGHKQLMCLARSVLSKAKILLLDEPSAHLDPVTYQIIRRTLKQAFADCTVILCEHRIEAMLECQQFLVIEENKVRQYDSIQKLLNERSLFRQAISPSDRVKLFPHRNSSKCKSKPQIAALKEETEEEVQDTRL

| Structure (SMILES) | EC50 [µM] | % Activation [1] [%] | EC50 [2] [µM] |
| --- | --- | --- | --- |
| CC(C)c1nn(-c2ccc(F)cc2)c2nc(C(=O)NS(=O)(=O)N(C)C)cc(N3CCC(N4CCOCC4)CC3)c12 [Compound 412, N-(dimethylsulfamoyl)-1-(4-fluorophenyl)-4-[4-(morpholin-4-yl)piperidin-1-yl]-3-(propan-2-yl)-1H-pyrazolo[3,4-b]pyridine-6-carboxamide] | 0.201 | 436.4 | – |
| CC(=O)N1CCC(F)(COc2cc(C(=O)NS(C)(=O)=O)nc3c2c(C(C)C)nn3-c2ccc(F)cc2)CC1 [Compound 308, 4-[(1-acetyl-4-fluoropiperidin-4-yl)methoxy]-1-(4-fluorophenyl)-N-(methanesulfonyl)-3-(propan-2-yl)-1H-pyrazolo[3,4-b]pyridine-6-carboxamide] | – | 328.85 | 2.49 |
| CC(C)c1nn(-c2ccc(F)cc2)c2nc(C(=O)NS(C)(=O)=O)cc(N3CCC(N4CCOCC4)CC3)c12 [Compound 411, 1-(4-fluorophenyl)-N-(methanesulfonyl)-4-[4-(morpholin-4-yl)piperidin-1-yl]-3-(propan-2-yl)-1H-pyrazolo[3,4-b]pyridine-6-carboxamide] | 0.478 | 505 | – |
| CCOCC1(F)CCN(c2cc(C(=O)NS(C)(=O)=O)nc3c2c(C(C)C)nn3-c2ccc(F)cc2)CC1 [Compound 342, 4-[4-(ethoxymethyl)-4-fluoropiperidin-1-yl]-1-(4-fluorophenyl)-N-(methanesulfonyl)-3-(propan-2-yl)-1H-pyrazolo[3,4-b]pyridine-6-carboxamide] | – | 336.5 | 0.207 |
| CCS(=O)(=O)NC(=O)c1cc(-c2ccc(N3CCOCC3)cc2)c2c(C)nn(-c3ccccc3)c2n1 [Compound 5, N-(ethanesulfonyl)-3-methyl-4-[4-(morpholin-4-yl)phenyl]-1-phenyl-1H-pyrazolo[3,4-b]pyridine-6-carboxamide] | – | 362.75 | 0.372 |
| CC(=O)N1CCC(COc2cc(C(=O)NS(C)(=O)=O)nc3c2c(C(C)C)nn3-c2ccc(F)cc2)CC1 [Compound 321, 4-[(1-acetylpiperidin-4-yl)methoxy]-1-(4-fluorophenyl)-N-(methanesulfonyl)-3-(propan-2-yl)-1H-pyrazolo[3,4-b]pyridine-6-carboxamide] | – | 314.37 | 0.497 |
| CC(C)(C)S(=O)(=O)NC(=O)c1cc(OCC2CCOCC2)c2c(C3CCC3)nn(-c3ccccc3)c2n1 [Compound 362, 3-cyclobutyl-N-(2-methylpropane-2-sulfonyl)-4-[(oxan-4-yl)methoxy]-1-phenyl-1H-pyrazolo[3,4-b]pyridine-6-carboxamide] | – | 195.75 | 0.414 |
| CC(C)N1CCN(c2ccc(-c3cc(C(=O)NS(=O)(=O)N(C)C)nc4c3c(C3CCC3)nn4C3CCCCC3)cc2)CC1 [Compound 547, 3-cyclobutyl-1-cyclohexyl-N-(dimethylsulfamoyl)-4-{4-[4-(propan-2-yl)piperazin-1-yl]phenyl}-1H-pyrazolo[3,4-b]pyridine-6-carboxamide] | – | 372.95 | 0.349 |
| C#CCCS(=O)(=O)NC(=O)c1cc(-c2ccc(N=[N+]=[N-])cc2)c2c(C(C)C)nn(-c3cccc(N(C)C)c3)c2n1 [Compound 363, 4-(4-azidophenyl)-N-(but-3-yne-1-sulfonyl)-1-[3-(dimethylamino)phenyl]-3-(propan-2-yl)-1H-pyrazolo[3,4-b]pyridine-6-carboxamide] | – | 415.8 | 0.116 |
| CC(C)c1nn(-c2ccc(F)cc2)c2nc(C(=O)NS(C)(=O)=O)cc(OCC3COCCO3)c12 (stereo not shown) [Compound 312, 4-[(1,4-dioxan-2-yl)methoxy]-1-(4-fluorophenyl)-N-(methanesulfonyl)-3-(propan-2-yl)-1H-pyrazolo[3,4-b]pyridine-6-carboxamide] | – | 291.5 | 1.88 |
| COCC1CCN(c2cc(C(=O)NS(=O)(=O)CCC(=O)O)nc3c2c(C2CCC2)nn3-c2ccccc2)CC1 [Compound 289, 3-({3-cyclobutyl-4-[4-(methoxymethyl)piperidin-1-yl]-1-phenyl-1H-pyrazolo[3,4-b]pyridine-6-carbonyl}sulfamoyl)propanoic Acid] | – | 366.4 | 3.33 |
| COCC1CCN(c2cc(C(=O)NS(=O)(=O)CC#N)nc3c2c(C2CCC2)nn3-c2ccccc2)CC1 [Compound 364, N-(cyanomethanesulfonyl)-3-cyclobutyl-4-[4-(methoxymethyl)piperidin-1-yl]-1-phenyl-1H-pyrazolo[3,4-b]pyridine-6-carboxamide] | – | 575 | 0.553 |
| CC(C)Oc1nn(C2CCCCC2)c2nc(C(=O)NS(=O)(=O)N(C)C)cc(-c3ccc(CN4CCCCC4)cc3)c12 [Compound 443, 1-cyclohexyl-N-(dimethylsulfamoyl)-4-{4-[(piperidin-1-yl)methyl]phenyl}-3-[(propan-2-yl)oxy]-1H-pyrazolo[3,4-b]pyridine-6-carboxamide] | – | 332.5 | 0.184 |
| COCC1CCN(c2cc(C(=O)NS(=O)(=O)CCn3cccn3)nc3c2c(C2CCC2)nn3-c2ccccc2)CC1 [Compound 372, 3-cyclobutyl-4-[4-(methoxymethyl)piperidin-1-yl]-1-phenyl-N-[2-(1H-pyrazol-1-yl)ethanesulfonyl]-1H-pyrazolo[3,4-b]pyridine-6-carboxamide] | – | 615.7 | 2.56 |
| O=C(NS(=O)(=O)C1CCOC1)c1cc(-c2ccc(CN3CCOCC3)cc2)c2c(OC3CCC3)nn(C3CCCCC3)c2n1 (stereo not shown) [Compound 467, 3-(cyclobutyloxy)-1-cyclohexyl-4-{4-[(morpholin-4-yl)methyl]phenyl}-N-(oxolane-3-sulfonyl)-1H-pyrazolo[3,4-b]pyridine-6-carboxamide] | – | 229.15 | 0.27 |
| COCC1CCN(c2cc(C(=O)NS(=O)(=O)CCC(=O)OC)nc3c2c(C2CCC2)nn3-c2ccccc2)CC1 [Compound 288, methyl 3-({3-cyclobutyl-4-[4-(methoxymethyl)piperidin-1-yl]-1-phenyl-1H-pyrazolo[3,4-b]pyridine-6-carbonyl}sulfamoyl)propanoate] | – | 566.4 | 0.0743 |
| CCS(=O)(=O)NC(=O)c1cc(N2CCC(N3CCCCC3)CC2)c2c(C3CCC3)nn(-c3ccccc3)c2n1 [Compound 427, 4-([1,4′-bipiperidin]-1′-yl)-3-cyclobutyl-N-(ethanesulfonyl)-1-phenyl-1H-pyrazolo[3,4-b]pyridine-6-carboxamide] | 0.163 | 419.5 | – |
| COCCN(C)c1cc(C(=O)NS(C)(=O)=O)nc2c1c(C(C)C)nn2-c1ccc(F)cc1 [Compound 301, 1-(4-fluorophenyl)-N-(methanesulfonyl)-4-[(2-methoxyethyl)(methyl)amino]-3-(propan-2-yl)-1H-pyrazolo[3,4-b]pyridine-6-carboxamide] | – | 376.6 | 1.14 |
| O=C(NS(=O)(=O)C1CCOC1)c1cc(N2CCN(c3ccncc3)CC2)c2c(C3CCC3)nn(C3CCCCC3)c2n1 (stereo not shown) [Compound 468, 3-cyclobutyl-1-cyclohexyl-N-(oxolane-3-sulfonyl)-4-[4-(pyridin-4-yl)piperazin-1-yl]-1H-pyrazolo[3,4-b]pyridine-6-carboxamide] | – | 443.05 | 0.524 |
| CC(C)c1nn(-c2ccc(F)cc2)c2nc(C(=O)NS(C)(=O)=O)cc(OCCC3CCCCN3C)c12 (stereo not shown) [Compound 305, 1-(4-fluorophenyl)-N-(methanesulfonyl)-4-[2-(1-methylpiperidin-2-yl)ethoxy]-3-(propan-2-yl)-1H-pyrazolo[3,4-b]pyridine-6-carboxamide] | – | 267 | 2.44 |

Reference: patent US10259810B2, “N-sulfonylated pyrazolo[3,4-b]pyridin-6-carboxamides and method of use” (AbbVie S.à.r.l., priority 2015, dated 2019)
